From ChEMBL document CHEMBL1137552, “Modifications of the chemical structure of terpenes in antiplasmodial and antifungal drug research” (Bioorg Med Chem Lett, 2007) come the findings set out here.

pIC50: −log10 of the molar value. In brackets after ≈: the same amount, converted by molar mass.

Test [1] relates to Candida albicans. In words: Antifungal activity against Candida albicans ATCC 90028 after 48 hrs. It is filed as functional. The note with it: ATCC 90028, 48 h.
The subject of the next test is Plasmodium falciparum. As to the kind of experiment: Antiplasmodial activity after 48 hrs against chloroquine-resistant Plasmodium falciparum FcM29-Cameroon by [3H]hypoxanthine uptake. It is filed as functional, organism-based.
The subject of test [2] is Candida albicans. As to the kind of experiment: Antifungal activity against Candida albicans ATCC 90028 after 24 hrs. The note with it: ATCC 90028, 24 h. The test is classed as functional.

In the case of `C#CCOC/C=C(\C)CCC=C(C)C`, the minimal inhibitory concentration (MIC) against Candida albicans [1] and against Candida albicans [2] was greater than 200 µg/mL in each case. The negative logarithm of the IC50 (pIC50) in the test on Plasmodium falciparum was 3.91.

Turning to `C#CCOCC1=CC[C@@H](C(=C)C)CC1`, the MIC against Candida albicans [1] and against Candida albicans [2] was greater than 200 µg/mL each time. The same compound showed a pIC50 with Plasmodium falciparum of 4.48.

`C#CCO[C@@H]1C[C@H](C)CC[C@H]1C(=C)C`: the minimum inhibitory concentration (MIC) against Candida albicans [1] and against Candida albicans [2] was greater than 200 µg/mL throughout. The negative-log IC50 (pIC50) in the test on Plasmodium falciparum is 4.51.

Regarding `C=C(C)[C@H]1CCC23COC=CC2C3C1` (stereo partly drawn), the MIC against Candida albicans [1] and against Candida albicans [2] was greater than 200 µg/mL each time. In addition, the pIC50 with Plasmodium falciparum was less than 4.00.

As for `CC1CC(=O)O[C@@H]2C[C@H](C)CC[C@@H]12` (stereo partly drawn), the MIC with Candida albicans [1] and in the test with Candida albicans [2] was greater than 200 µg/mL each time. The compound further had a pIC50 with Plasmodium falciparum of 3.33.

Consider `CC(C)=CCC[C@@]1(C)OCC2=CC(=O)CC21` (stereo partly drawn), for which the MIC against Candida albicans [1] and with Candida albicans [2] was greater than 200 µg/mL throughout. In addition, the negative-log IC50 (pIC50) in the test on Plasmodium falciparum is 5.74.

On to `C=CC1=C(C)[C@@H]2CC[C@@H](C)C[C@H]2OC1`, for which the minimal inhibitory concentration (MIC) in the test on Candida albicans [1] and against Candida albicans [2] was greater than 200 µg/mL throughout. The compound further gave a pIC50 in the test on Plasmodium falciparum of less than 4.00.

Regarding `C#CCO[C@@](C)(C=C)CCC=C(C)C`, the minimum inhibitory concentration (MIC) in the test on Candida albicans [1] and with Candida albicans [2] was greater than 200 µg/mL throughout. This compound showed a negative-log IC50 (pIC50) in the test on Plasmodium falciparum of 4.41.

As for `C[C@@H]1CC[C@H]2[C@@H](C)C(=O)O[C@@H]3O[C@@]4(C)CC[C@@H]1[C@]32OO4` [ARTEMISININ], the minimal inhibitory concentration (MIC) in the test on Candida albicans [1] and against Candida albicans [2] was greater than 200 µg/mL throughout. The compound also gave a negative-log IC50 (pIC50) with Plasmodium falciparum of 8.15.

In the case of `CCN(CC)CCCC(C)Nc1ccnc2cc(Cl)ccc12` (stereo not drawn) [CHLOROQUINE], the MIC in the test on Candida albicans [1] and in the test on Candida albicans [2] was greater than 200 µg/mL in each case.

On to `CC(C)=CCCC(C)CCO` (stereo not drawn) [CITRONELLOL], for which the MIC in the test with Candida albicans [1] and against Candida albicans [2] was greater than 200 µg/mL in each case. The compound also gave a pIC50 in the test on Plasmodium falciparum of 3.72.

Regarding `C=C(C)[C@H]1CC=C(C)CC1` [D-LIMONENE], the MIC in the test on Candida albicans [1] and in the test with Candida albicans [2] was greater than 200 µg/mL in each case. Further, in the test on Plasmodium falciparum, the negative-log IC50 (pIC50) is 4.18.

As to `Nc1nc(=O)[nH]cc1F` [FLUCYTOSINE], 0.75 µg/mL (≈ 5.81 µM) was the least that counted as inhibitory in the test with Candida albicans [1] (MIC).

Turning to `CC(C)=CCC/C(C)=C/CO` [GERANIOL], the minimal inhibitory concentration (MIC) with Candida albicans [1] and against Candida albicans [2] was greater than 200 µg/mL in each case. The negative logarithm of the IC50 (pIC50) in the test with Plasmodium falciparum is 4.28.

Consider `C=C(C)[C@@H]1CC[C@@H](C)C[C@H]1O` [ISOPULEGOL], for which the minimal inhibitory concentration (MIC) against Candida albicans [1] and with Candida albicans [2] was greater than 200 µg/mL in each case. This compound had a pIC50 in the test on Plasmodium falciparum of 3.55.

For the compound `C=CC(C)(O)CCC=C(C)C` (stereo not drawn) [LINALOOL], the MIC in the test on Candida albicans [1] and with Candida albicans [2] was greater than 200 µg/mL in each case. In addition, the negative-log IC50 (pIC50) with Plasmodium falciparum was 3.28.

For `C=C(C)[C@@H]1CC=C(CO)CC1` [PERILLYL ALCOHOL], the minimal inhibitory concentration (MIC) against Candida albicans [1] and with Candida albicans [2] was greater than 200 µg/mL throughout. The same compound had a negative logarithm of the IC50 (pIC50) in the test with Plasmodium falciparum of 3.74.

For orientation: MIC means the lowest concentration that inhibits growth of the organism. Lower therefore signals inhibition by little substance. A word on the pIC50: it is −log10 of the IC50, conventionally taken in molar units. A high value points to a small IC50.
